Measured values: US12699083B2, “Device for continuous measurement of cardiac activity” (The Hospital for Sick Children, priority 2018, dated 2026)

How the values were obtained:
hiPSC-CM monolayers = experiment: Drug test on hiPSC-CM monolayers cultured on CNT-PDMS device arrays (contractile stress, beating rate, beating rhythm from CNT sensor resistance); format: cell-based, human
Description: Once after hiPSC-CMs were seeded, the device array 10 was placed in a humidified 37° C. incubator with 5% CO2, and the electrical signal of the CNT sensors started to be recorded. A constant voltage of 2.5 V was applied to the CNT-PDMS sensors, and sensor signals were recorded with a sampling frequency of 10 Hz.
Drug stocks were kept at 4° C. prior to use. Drug tests were performed on hiPSC-CM monolayers during culture days between 10 and 14. […] After each drug addition, cells were incubated for 10 hours for each dose before CNT sensor signals were recorded to reflect the drug effect.
Each set of data was from 3 to 6 experiment repeats and presented as values of the mean and the standard error of the mean. For differential analysis, all statistics of recorded data was processed using Student's t-test with levels of 0.05, 0.1 when they were compared to the control group. All data sets passed Shapiro-Wilk normality tests and equal variance tests.
The contractile stress generated by cardiomyocytes monolayer during synchronous systole was calculated from the experimentally measured data (i.e., CNT sensor's electrical resistance change).

single hiPSC-CM = settings: 0.1 μM of OM, TFFB; cited from earlier work

## CC(C)NCC(O)c1ccc(O)c(O)c1 (centres unmarked) [Isoproterenol]
hiPSC-CM monolayers; 2.00 μM isoproterenol
  beating rate increased by: 13.6%
hiPSC-CM monolayers; 2.00 μM isoproterenol vs control
  Contractile stress increased by: 69.4%
hiPSC-CM monolayers; 2.00 μM isoproterenol, n=3, p<0.05, control 1.17±0.068 Hz
  beating rate: 1.33±0.081 Hz
hiPSC-CM monolayers; 2.00 μM isoproterenol, n=3, control 2.34±0.093 kPa
  contractile stress: 3.963±0.532 kPa

## COc1cc2c(cc1OC)CC(=O)N(CCCN(C)C[C@H]1Cc3cc(OC)c(OC)cc31)CC2 [Ivabradine]
hiPSC-CM monolayers; 10.00 μM Ivabradine, n=3, p<0.05, before 1.16±0.32 Hz
  beating rate: 0.81±0.30 Hz
hiPSC-CM monolayers; 10.00 μM Ivabradine, n=3, p>0.1, before 2.26±0.43 kPa
  contractile stress: 2.00±0.68 kPa

## COC(=O)N1CCN(Cc2cccc(NC(=O)Nc3ccc(C)nc3)c2F)CC1 [OM, Omecamtiv mecarbil]
hiPSC-CM monolayers; 20 nM (0.02 μM) OM
  contractile stress increase by: 76%
hiPSC-CM monolayers; 20 nM (0.02 μM) OM, n=3, p<0.05, before 2.25±0.11 kPa
  contractile stress: 3.96±0.40 kPa
hiPSC-CM monolayers; 20 nM OM, n=3, p<0.05, before 1.69×10^−2±8.46×10^−4
  amplitude of ΔR/R0: 2.98×10^−2±2.97×10^−3
hiPSC-CM monolayers; 20 nM OM, n=3, p>0.1, control 1.11±0.25 Hz
  beating rate: 1.13±0.31 Hz
Single hiPSC-CM
  Contractility generated by a single cardiomyocyte increased by: 16.7%

## Cc1cccc(CCN2CCC(C(=O)c3ccc(NS(C)(=O)=O)cc3)CC2)n1 [E-4031]
hiPSC-CM monolayers; 0.10 μM E-4031, n=3
  contractile stress: 2.47±0.48 kPa
hiPSC-CM monolayers; 0.60 μM E-4031, n=3, p>0.1
  contractile stress: 2.39±1.38 kPa

## COc1ccc(CCN(C)CCCC(C#N)(c2ccc(OC)c(OC)c2)C(C)C)cc1OC (centres unmarked) [Verapamil]
hiPSC-CM monolayers; 0.20 μM Verapamil, n=3, before 2.34±9.31×10^−2 kPa
  contractile stress: 1.15±1.31×10^−1 kPa
